Measurements taken from BigSolDB 2.1.

## CC1=C(C(=O)O)N2C(=O)[C@@H](NC(=O)[C@H](N)C3=CCC=CC3)[C@H]2SC1
In ethanol, 283.15 K
  solubility (mole fraction): 0.000187
In ethanol, 285.15 K
  solubility (mole fraction): 0.000195
In ethanol, 288.15 K
  solubility (mole fraction): 0.000217
In ethanol, 291.15 K
  solubility (mole fraction): 0.000233
In ethanol, 293.15 K
  solubility (mole fraction): 0.000249
In ethanol, 298.15 K
  solubility (mole fraction): 0.000299
In ethanol, 303.15 K
  solubility (mole fraction): 0.000368
In ethanol, 308.15 K
  solubility (mole fraction): 0.000442
In methanol, 283.15 K
  solubility (mole fraction): 0.000575
In methanol, 285.15 K
  solubility (mole fraction): 0.00061
In methanol, 288.15 K
  solubility (mole fraction): 0.00065
In methanol, 291.15 K
  solubility (mole fraction): 0.000702
In methanol, 293.15 K
  solubility (mole fraction): 0.000738
In methanol, 298.15 K
  solubility (mole fraction): 0.000845
In methanol, 303.15 K
  solubility (mole fraction): 0.000955
In methanol, 308.15 K
  solubility (mole fraction): 0.00108
In n-butanol, 283.15 K
  solubility (mole fraction): 0.000265
In n-butanol, 285.15 K
  solubility (mole fraction): 0.000288
In n-butanol, 288.15 K
  solubility (mole fraction): 0.000335
In n-butanol, 291.15 K
  solubility (mole fraction): 0.000369
In n-butanol, 293.15 K
  solubility (mole fraction): 0.000405
In n-butanol, 298.15 K
  solubility (mole fraction): 0.000478
In n-butanol, 303.15 K
  solubility (mole fraction): 0.000567
In n-butanol, 308.15 K
  solubility (mole fraction): 0.000657
In n-propanol, 283.15 K
  solubility (mole fraction): 0.00019
In n-propanol, 285.15 K
  solubility (mole fraction): 0.000198
In n-propanol, 288.15 K
  solubility (mole fraction): 0.000214
In n-propanol, 291.15 K
  solubility (mole fraction): 0.000238
In n-propanol, 293.15 K
  solubility (mole fraction): 0.000253
In n-propanol, 298.15 K
  solubility (mole fraction): 0.000319
In n-propanol, 303.15 K
  solubility (mole fraction): 0.000381
In n-propanol, 308.15 K
  solubility (mole fraction): 0.000469
In water, 283.15 K
  solubility (mole fraction): 0.00114
In water, 288.15 K
  solubility (mole fraction): 0.00115
In water, 293.15 K
  solubility (mole fraction): 0.00116
In water, 298.15 K
  solubility (mole fraction): 0.00117
In water, 303.15 K
  solubility (mole fraction): 0.00118
In water, 308.15 K
  solubility (mole fraction): 0.0012
